Data from patent US11390617B2, “Methods of treating non-Hodgkin lymphoma using 2-(2,6-dioxopiperidin-3-yl)-4-((2-fluoro-4-((3-morpholinoazetidin-1-yl)methyl)benzyl)amino)isoindoline-1,3-dione” (Celgene Corporation, priority 2019, dated 2022).

Tests used:
[1] = tested on: lymphoma cell lines WSU-DLCL2, SU-DHL6 and RL; assay: Macrophage mediated phagocytosis (ADCP) with rituximab; format: cell-based; conditions: macrophages treated with Compound 1 10 nM 48 hours, 3 hours
Procedure: Monocyte-derived macrophages (MDM) were generated by plating 8×10^6 commercial monocytes isolated from PBMC in RPMI media supplemented with 10% FBS, 1% L-glutamine and 60 ng/mL macrophage colony-stimulating factor (M-CSF) during 6 to 7 days. Then, MDM were treated with Compound 1 (10 nM) or DMSO control and cultured for an additional 48 hours prior to the assay. Lymphoma cell lines WSU-DLCL2, SU-DHL6 and RL were stained with CellTrace CFSE at 200 nM in PBS for 5 minutes at room temperature and added to the MDM cultures. At the time of co-culture, rituximab or isotype control were added to the media and cells were incubated at 37° C. during 3 hours. At the end of culture, cells were stained with anti-CD14 APC and images were acquired in Operetta. Phagocytosis index was calculated as cells positive for CFSE (green) and CD14 (red).

SU-DHL-4 cell line = assay: Cell proliferation and viability assay using SU-DHL-4 cell line (Cell Titer-Glo); format: cell-based; conditions: Homo sapiens, SU-DHL-4, 120 hours
Procedure: The following exemplary assay uses a DLBCL cell line, for example, the SU-DHL-4 cell line (Deutsche Sammlung von Mikroorganismen und Zellkulturen GmbH [DSMZ]: catalogue number ACC-495) at 120 hours post-treatment. The seeding density for SU-DHL-4 can be optimized to ensure assay linearity in 1536-well plates.
Increasing concentrations (0.5 nM to […]) of Compounds 1, 2, and 3 were each spotted in a 20-point dilution fashion (unevenly spaced data points) via an acoustic dispenser (EDC ATS-100) into an empty 1536-well plate. The DMSO concentration was kept constant for a final assay concentration of 0.1% DMSO. Prior to testing, SU-DHL-4 cells were grown in RPMI-1640 (Roswell Park Memorial Institute-1640) medium with 10% FBS (fetal bovine serum: HyClone) and expanded in culture flasks to provide sufficient amounts of starting material. Cells were then diluted to 500 cells per well in a 5 μL volume, and added directly to the compound-spotted 1536-well plates. Cells were allowed to grow for 120 hours in 5% CO2 at 37° C. At the time when exposure of cells to compound began (t0), initial viable cell number was assessed via Cell Titer-Glo® Luminescent Cell Viability Assay at a 1 vol: 2 vol ratio according to manufacturer's instructions (Promega Corporation, Madison, Wis.) by quantifying the level of luminescence generated by adenosine-5′-triphosphate (ATP) present in viable cells. After 120 hours, cell viability of the treated cells was assessed via Cell Titer-Glo© and read for luminescence. All growth inhibition curves were processed and evaluated using Activity Base (IDBS, Alameda, Calif.). Cell viability IC50 values were calculated using a four parameter logistic model (sigmoidal dose-response model): y=(A+((B−A)/(1+((C/x)^D)))) wherein: A=YMin B=YMax C=EC50 D=Hill slope IC50=the concentration of the compound when Y=50% of DMSO control Y=cell viability measured as luminescence unit, and x=concentration of compound.

[2] = tested on: SUDHL-6 DLBCL xenograft tumors; assay: SUDHL-6 (DLBCL) xenograft model; format: in vivo, female SCID mice; conditions: Compound 1 10 mg/kg oral, 5 days on 2 days off for 3 weeks, single agent
Procedure: Female 6- to 8-weeks-old CB17 SCID mice were obtained from Charles River Laboratories. Mice were housed in a barrier facility in micro-isolator cages at 10 animals per cage. Mice were fed with Harlan-Teklad LM-485 Mouse/Rat Sterilizable Diet and autoclaved water ad libitum and maintained on a 12 hours light-dark cycle. Animals were acclimatized to the animal housing facility for a period of 7 days before the beginning of the experiment. All animal studies were performed under protocols approved by Institutional Animal Care and Use Committees.
Suspensions of Compound 1 were pared in aqueous 0.5% Methyl Cellulose, 0.25% Tween 80 and 50 mM Citrate pH 3. […]
Tumor cells were injected subcutaneously in the flank region above the right hind legs of female CB17 SCID mice. […] Tumor volumes were determined before the initiation of treatment and were considered as the starting volumes. Tumors were measured twice a week for the duration of the study. The long and short axes of each tumor were measured using a digital caliper in millimeters. The tumor volumes were calculated using the formula: width^2×length/2. […]
Xenograft data are expressed as mean±SEM. […]
Xenograft study was conducted with female SCID mice bearing SUDHL-6 DLBCL xenograft tumors. […] Tumors were measured twice a week using calipers and tumor volumes were calculated using the formula of W^2×L/2. […]

SMILES: O=C1CC[C@H](N2C(=O)c3cccc(NCc4ccc(CN5CC(N6CCOCC6)C5)cc4F)c3C2=O)C(=O)N1 [Compound 1, (S)-2-(2,6-dioxopiperidin-3-yl)-4-((2-fluoro-4-((3-morpholinoazetidin-1-yl)methyl)benzyl)amino)isoindoline-1,3-dione]
- phagocytosis of lymphoma cell lines mediated by macrophages (ADCP) [1]: enhances phagocytosis of lymphoma cell lines mediated by macrophages
- IC50 (SU-DHL-4 cell line): < 200 nM
- tumor volume reduction [2]: 68%
